Like-named read-outs stand apart in the source and are kept apart here.
Columns and labels:
[1] = tested on: Leishmania donovani axenic amastigote parasites; experiment: Leishmania donovani axenic amastigote proliferation assay (Cell TiterGlo luminescence, 2 day incubation); format: cell-based; conditions: read-out: L. donovani amastigotes EC50
[2] = tested on: L. donovani HU3 strain in mouse peritoneal macrophages; experiment: Assay for proliferation of Leishmania parasites in infected mouse peritoneal macrophages (SybrGreen staining, high-content imaging, 5 days); format: cell-based, Leishmania donovani; conditions: L. donovani in mouse peritoneal macrophages, read-out: L. donovani Macrophage EC50
[3] = tested on: Trypanosoma brucei Lister 427 strain, bloodstream form; experiment: Assay for proliferation of kinetoplastid parasite Trypanosoma brucei (Cell Titer Glo, 48 hours); format: cell-based; conditions: T. brucei Lister 427 bloodstream form, read-out: T. brucei EC50
From the text: Assay for Proliferation of Kinetoplastid Parasite Trypanosoma brucei.
The proliferation is quantified by the addition of Cell Titer Glo (Promega®) a luminescent cell viability assay that measures the number of viable cells in culture based on the quantification of cellular ATP amount, which is an indicator of metabolically active cells.
The following assay illustrates the invention without in any way limiting the scope of the invention. This parasite proliferation assay measures the increase in parasite growth using an assay that measures ATP activity, Cell Titer Glo®.
Trypanosoma brucei Lister 427 strain is grown in HMI-9 Trypanosome media for T. brucei bloodstream form. 30 μl of HMI-9 media is dispensed into 384 well assay plates. 200 nl of compounds of the invention (in DMSO), including anti-trypanosome controls (Pentamidine and suramin), are then transferred into the assay plates, as well as DMSO alone to serve as a negative control for inhibition. Then 25 μl of a suspension of T. brucei culture in HMI-9 media is dispensed into the assay plates. The final concentration of parasites in culture corresponds to 1.7% of 0.5 uM ATP activity with Cell Titer Glo® in HMI-9 media. The plates are placed in a 37° C. incubator for 48 hours in an atmospheric environment containing 5% CO2. 40 μl of Cell Titer Glo® is dispensed into the plates. The plates are then read for luminescence. The percentage inhibition of 50%, EC50, is calculated for each compound.

[4] = tested on: Trypanosoma cruzi amastigotes (Tulahuen strain expressing Lac-Z) cultured in 3T3 fibroblast cells; experiment: microbe, parasite or virus in culture; format: cell-based; conditions: T. cruzi amastigotes in 3T3 fibroblast cells, read-out: T cruzi EC50
[5] = axenic amastigotes, inhibition of proliferation
[6] = Trypanosoma cruzi, TULAHUEN, Fibroblast, inhibition of proliferation
[7] = Leishmania donovani, axenic amastigotes, inhibition of proliferation
[8] = Leishmania donovani, Peritoneal macrophage, inhibition of proliferation
[9] = Trypanosoma brucei, inhibition of proliferation
[10] = Leishmania donovani, L. donovani axenic amastigotes
[11] = Trypanosoma cruzi, TULAHUEN, Fibroblast
[12] = Leishmania donovani, Peritoneal macrophage

Row | EC50 [1, 10] [nM] | EC50 ([3]; Trypanosoma brucei) [nM] | EC50 [2, 12] [nM] | Compound | also measured
1 |  |  |  | Cc1nc(C)c(C(=O)Nc2ccc(F)c(-c3cn4cc(NC(=O)C5CCCCO5)cnc4n3)c2)o1 (single isomer, unassigned) [Compound 184] | EC50 [1, 5]: 146 nM; EC50 ([2]; inhibition of proliferation): 333 nM; EC50 ([3]; inhibition of proliferation): 175 nM; EC50 [4, 6]: 565 nM
2 |  |  |  | Cc1nc(C)c(C(=O)Nc2ccc(F)c(-c3cn4cc(NC(=O)C5CCCCO5)cnc4n3)c2)o1 (single isomer, unassigned) [Compound 185] | EC50 [1, 5]: 462 nM; EC50 ([2]; inhibition of proliferation): 1140 nM; EC50 ([3]; inhibition of proliferation): 954 nM; EC50 ([4]; inhibition of proliferation): 1070 nM
3 |  |  |  | CC(C)OC(=O)Nc1cnc2nc(-c3cc(NC(=O)c4cocn4)ccc3Cl)cn2c1 [Compound 43] | EC50 [1, 7]: 782 nM; EC50 [2, 8]: 3910 nM; EC50 [3, 9]: 474 nM; EC50 [4, 6]: 409 nM
4 |  |  |  | CC(C)OC(=O)Nc1cnc2nc(-c3cc(NC(=O)c4ccc(Cl)o4)ccc3Cl)cn2c1 [Compound 44] | EC50 [1, 7]: 121 nM; EC50 [2, 8]: 193 nM; EC50 [3, 9]: 39 nM; EC50 [4, 6]: 47 nM
5 |  |  |  | Cc1nc(C)c(C(=O)Nc2ccc(Cl)c(-c3cn4cc(NC(=O)OC(C)C)cnc4n3)c2)o1 [Compound 45] | EC50 [1, 7]: 226 nM; EC50 [2, 8]: 452 nM; EC50 [3, 9]: 522 nM; EC50 [4, 6]: 400 nM
6 | > 25000 | 17200 | > 50000 | CN(C(=O)N1CCCC1)c1ccc(F)c(-c2cn3cc(N)cnc3n2)c1 [Compound 558] | 
7 | 1140 | 212 | 12000 | O=C(Nc1ccc(F)c(-c2cn3cc(NC(=O)C(F)(F)F)cnc3n2)c1)N1CCCC1 [Compound 566, N-(4-fluoro-3-(6-(2,2,2-trifluoroacetamido)imidazo[1,2-a]pyrimidin-2-yl)phenyl)pyrrolidine-1-carboxamide] | 
8 | > 25000 | 12100 | > 50000 | CC(=O)Nc1ccc(F)c(-c2cn3cc(NC(C)=O)cnc3n2)c1 [Compound 567, N-(2-(5-acetamido-2-fluorophenyl)imidazo[1,2-a]pyrimidin-6-yl)acetamide] | 
9 | > 25000 | 36200 | > 50000 | CC(C)(C)OC(=O)Nc1cnc2nc(-c3cccc(NC(=O)N4CCCC4)c3F)cn2c1 [Compound 579] | 
10 | > 25000 | > 50000 | 2270 | CC(C)c1cnc2nc(-c3cc(N)ccc3F)cn2c1 [Compound 584, 4-fluoro-3-(6-isopropylimidazo[1,2-a]pyrimidin-2-yl)aniline] | 
11 | 552 | 59 | 4000 | CN(CC(F)(F)F)C(=O)Nc1ccc(F)c(-c2cn3cc(Br)cnc3n2)c1 [Compound 586, 3-(3-(6-bromoimidazo[1,2-a]pyrimidin-2-yl)-4-fluorophenyl)-1-methyl-1-(2,2,2-trifluoroethyl)urea] | 
12 | 145 | 53 | 428 | CC(C)Nc1cnc2nc(-c3cc(NC(=O)N4CC(F)C4)ccc3F)cn2c1 [Compound 592] | 
13 | 255 | 54 | 160 | CN(C)c1cnc2nc(-c3cc(NC(=O)N4CC(F)C4)ccc3F)cn2c1 [Compound 593] | 

Row | Compound | EC50 [1, 10] [nM] | EC50 ([3]; Trypanosoma brucei) [nM] | EC50 [2, 12] [nM] | also measured
14 | COCCN1CCC(c2cnc3nc(-c4cc(NC(=O)c5oc(C)nc5C)ccc4F)cn3c2)CC1 [Compound 540] | > 25000 | 868 |  | EC50 [4, 11]: 1330 nM
15 | Cc1nc(C)c(C(=O)Nc2ccc(F)c(-c3cn4cc(C5CCN(CCO)CC5)cnc4n3)c2)o1 [Compound 541] | > 25000 | 9920 |  | EC50 [4, 11]: > 20000 nM
16 | Cc1nc(C)c(C(=O)Nc2ccc(F)c(-c3cn4cc(C5CCN(C(=O)CO)CC5)cnc4n3)c2)o1 [Compound 542, N-(4-fluoro-3-(6-(1-(2-hydroxyacetyl)piperidin-4-yl)imidazo[1,2-a]pyrimidin-2-yl)phenyl)-2,4-dimethyloxazole-5-carboxamide] | 450 | 467 |  | EC50 [4, 11]: 8060 nM
17 | Cc1nc(C)c(C(=O)Nc2ccc(F)c(-c3cn4cc(CC(F)(F)F)cnc4n3)c2)o1 [Compound 575, N-(4-fluoro-3-(6-(2,2,2-trifluoroethyl)imidazo[1,2-a]pyrimidin-2-yl)phenyl)-2,4-dimethyloxazole-5-carboxamide] | 78 | 22 |  | EC50 [4, 11]: 52 nM

Source: patent publication US20160045505A1, “COMPOUNDS AND COMPOSITIONS FOR THE TREATMENT OF PARASITIC DISEASES” (NOVARTIS AG, priority 2013, published 2016)
